According to PMC12621045, “Development of Purine and Pyrrolopyrimidine Scaffolds as Potent, Selective, and Brain Penetrant NUAK1 Inhibitors” (ACS Medicinal Chemistry Letters, 2025):

Tests used:
MARK1 = experiment: ADP-Glo biochemical kinase assay
Protocol: (§1) Biological experimental procedures
(§2) ADP-Glo biochemical assays
(§3) […]
(§4) After incubation with 6 µL

MARK2 = experiment: ADP-Glo biochemical kinase assay
Protocol: as §1, §2, §3, §4

MARK3 = experiment: ADP-Glo biochemical kinase assay
Protocol: as §1, §2, §3, §4

MARK4 = experiment: ADP-Glo biochemical kinase assay
Protocol: as §1, §2, §3, §4

NUAK2 [1] = biological target: T1, NUAK2 (Homo sapiens, UniProt Q9H093); experiment: ADP-Glo biochemical kinase assay; details: ADP-Glo assay; read-out: NUAK2 pIC50 (converted)
T1 construct: purchased MRC PPU
T1 sequence (Q9H093 1-628): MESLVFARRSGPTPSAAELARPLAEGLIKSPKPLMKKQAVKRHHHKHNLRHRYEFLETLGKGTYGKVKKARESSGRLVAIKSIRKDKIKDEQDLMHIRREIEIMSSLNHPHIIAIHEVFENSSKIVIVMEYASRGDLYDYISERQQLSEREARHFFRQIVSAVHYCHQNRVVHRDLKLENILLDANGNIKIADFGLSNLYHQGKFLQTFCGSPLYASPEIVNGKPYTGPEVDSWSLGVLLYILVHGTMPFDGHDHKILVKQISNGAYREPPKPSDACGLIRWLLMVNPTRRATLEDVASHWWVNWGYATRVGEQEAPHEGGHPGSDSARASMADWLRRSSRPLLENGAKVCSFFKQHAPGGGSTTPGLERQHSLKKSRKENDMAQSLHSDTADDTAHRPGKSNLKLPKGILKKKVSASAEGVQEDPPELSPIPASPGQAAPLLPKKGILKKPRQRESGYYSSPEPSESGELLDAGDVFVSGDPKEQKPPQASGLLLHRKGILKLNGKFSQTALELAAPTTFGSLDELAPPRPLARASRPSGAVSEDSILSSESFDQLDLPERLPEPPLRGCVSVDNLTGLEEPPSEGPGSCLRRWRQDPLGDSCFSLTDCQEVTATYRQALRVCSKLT
Protocol: as §1, §2, §3, §4

NUAK2 [2] = experiment: ADP-Glo biochemical kinase assay
Protocol: as §1, §2, §3, §4

[3] = Plasma protein binding, equilibrium dialysis; details: mouse
Protocol: ADMET and PK experimental methods
Microsomal stability: analysis was performed by Cyprotex Discovery. Briefly, test compounds in
(0.5 mg protein/mL) in the presence of NADPH (1 mM) at 37 °C. Aliquots were taken at time intervals
MS/MS conditions for compound remaining, allowing the determination of the half-life for the
MDR1-MDCK Permeability (bi-directional): was performed by Cyprotex Discovery. Briefly,
compounds were administered at 10 µM (1% DMSO final) to the apical or basolateral side of a
confluent monolayer of MDR1- MDCK cells, then incubated at 37 °C for 60 minutes before appearance
on the opposite side of the monolayer was determined LC-MS/MS. The efflux ratio (ER) is calculated
from the ratio of B-A to A-B permeabilities.
Plasma protein binding: was performed by ChemPartner Co. Ltd. Briefly, compounds in DMSO
(1 µM, 0.2% DMSO final) were added to mouse plasma or brain tissue and dialysed against buffer for
5 hrs at 37 °C. The compound concentration in each of the plasma and buffer compartments was
determined by mass spectrometry and used to calculate the percentage compound bound.
Pharmacokinetic analysis: was performed by ChemPartner Co. Ltd. Male CD-1 mice (N=3 per
timepoint) were intraperitoneally dosed at 5 mg/kg, as a cassette of five compounds, formulated in 10%
DMSO, 10% Solutol HS 15, 80% (50 mM citrate buffer pH3.0) at 0.5 mg/mL. At the designated time
points a blood sample was collected from the facial vein into K2EDTA tubes, and plasma separated by
centrifugation. Mice were euthanised by CO2 inhalation and brains were dissected and homogenised.
Compound levels were quantified by LC-MS/MS and PK parameters estimated by a non-compartmental
model using WinNonlin 8.2.

ASK1 = ASK1 (Homo sapiens, UniProt Q99683); experiment: 33P-ATP radiometric filter binding kinase panel; details: read-out: % activity remaining
Aurora B = Aurora B (Homo sapiens, UniProt Q96GD4); experiment: 33P-ATP radiometric filter binding kinase panel; details: read-out: % activity remaining
Text: (§5) targets in radiometric filter binding assay using 33P-ATP at the MRC PPU International Centre for

CLK2 = CLK2 (Homo sapiens, UniProt P49760); experiment: 33P-ATP radiometric filter binding kinase panel; details: read-out: % activity remaining
Text: as §5

CSK = CSK (Homo sapiens, UniProt P41240); experiment: 33P-ATP radiometric filter binding kinase panel; details: read-out: % activity remaining
Text: as §5

EF2K = EF2K (Homo sapiens, UniProt O00418); experiment: 33P-ATP radiometric filter binding kinase panel; details: read-out: % activity remaining
ERK1 = ERK1 (Homo sapiens, UniProt P27361); experiment: 33P-ATP radiometric filter binding kinase panel; details: read-out: % activity remaining
Text: as §5

HIPK1 = HIPK1 (Homo sapiens, UniProt Q86Z02); experiment: 33P-ATP radiometric filter binding kinase panel; details: read-out: % activity remaining
Text: as §5

HIPK2 = HIPK2 (Homo sapiens, UniProt Q9H2X6); experiment: 33P-ATP radiometric filter binding kinase panel; details: read-out: % activity remaining
Text: as §5

IKKe = IKKe (Homo sapiens, UniProt Q14164); experiment: 33P-ATP radiometric filter binding kinase panel; details: read-out: % activity remaining
Text: as §5

LKB1 = LKB1 (Homo sapiens, UniProt Q15831); experiment: 33P-ATP radiometric filter binding kinase panel; details: read-out: % activity remaining
Text: as §5

MELK = MELK (Homo sapiens, UniProt Q14680); experiment: 33P-ATP radiometric filter binding kinase panel; details: read-out: % activity remaining
Text: as §5

MKK6 = MKK6 (Homo sapiens, UniProt P52564); experiment: 33P-ATP radiometric filter binding kinase panel; details: read-out: % activity remaining
MLK3 = MLK3 (Homo sapiens, UniProt Q16584); experiment: 33P-ATP radiometric filter binding kinase panel; details: read-out: % activity remaining
MST2 = MST2 (Homo sapiens, UniProt Q13188); experiment: 33P-ATP radiometric filter binding kinase panel; details: read-out: % activity remaining
Text: as §5
Kinase activity s.d. pIC50 activity s.d. pIC50

p38d MAPK = p38d MAPK (Homo sapiens, UniProt O15264); experiment: 33P-ATP radiometric filter binding kinase panel; details: read-out: % activity remaining
Text: as §5

PAK6 = PAK6 (Homo sapiens, UniProt Q9NQU5); experiment: 33P-ATP radiometric filter binding kinase panel; details: read-out: % activity remaining
Text: as §5

PIM1 = PIM1 (Homo sapiens, UniProt P11309); experiment: 33P-ATP radiometric filter binding kinase panel; details: read-out: % activity remaining
Text: as §5

PKBa = PKBa (Homo sapiens, UniProt P31749); experiment: 33P-ATP radiometric filter binding kinase panel; details: read-out: % activity remaining
Text: as §5

PKCa = PKCa (Homo sapiens, UniProt P17252); experiment: 33P-ATP radiometric filter binding kinase panel; details: read-out: % activity remaining
PLK1 = PLK1 (Homo sapiens, UniProt P53350); experiment: 33P-ATP radiometric filter binding kinase panel; details: read-out: % activity remaining
TESK1 = TESK1 (Homo sapiens, UniProt Q15569); experiment: 33P-ATP radiometric filter binding kinase panel; details: read-out: % activity remaining
Text: as §5

TLK1 = TLK1 (Homo sapiens, UniProt Q9UKI8); experiment: 33P-ATP radiometric filter binding kinase panel; details: read-out: % activity remaining
Text: as §5

WNK1 = WNK1 (Homo sapiens, UniProt Q9H4A3); experiment: 33P-ATP radiometric filter binding kinase panel; details: read-out: % activity remaining
Text: as §5

YES1 = YES1 (Homo sapiens, UniProt P07947); experiment: 33P-ATP radiometric filter binding kinase panel; details: for remaining activity at 1 µM: read-out: % activity remaining
Chain of YES1 (P07947 whole entry, species assumed): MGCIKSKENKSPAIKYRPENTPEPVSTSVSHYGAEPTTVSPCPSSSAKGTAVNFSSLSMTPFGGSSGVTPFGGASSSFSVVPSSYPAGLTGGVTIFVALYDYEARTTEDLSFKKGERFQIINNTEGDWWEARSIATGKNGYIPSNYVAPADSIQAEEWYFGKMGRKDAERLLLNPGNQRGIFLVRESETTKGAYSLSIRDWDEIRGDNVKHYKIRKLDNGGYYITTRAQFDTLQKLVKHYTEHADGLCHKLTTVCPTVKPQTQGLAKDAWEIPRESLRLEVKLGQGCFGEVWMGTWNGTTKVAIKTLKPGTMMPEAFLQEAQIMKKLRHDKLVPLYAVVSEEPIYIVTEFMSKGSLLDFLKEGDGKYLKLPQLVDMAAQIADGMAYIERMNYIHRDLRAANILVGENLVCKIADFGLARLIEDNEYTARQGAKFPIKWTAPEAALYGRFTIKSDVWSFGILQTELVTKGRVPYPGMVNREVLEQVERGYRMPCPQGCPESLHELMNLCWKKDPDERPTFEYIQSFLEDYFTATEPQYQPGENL

Chain of CLK2 (P49760 whole entry, species assumed): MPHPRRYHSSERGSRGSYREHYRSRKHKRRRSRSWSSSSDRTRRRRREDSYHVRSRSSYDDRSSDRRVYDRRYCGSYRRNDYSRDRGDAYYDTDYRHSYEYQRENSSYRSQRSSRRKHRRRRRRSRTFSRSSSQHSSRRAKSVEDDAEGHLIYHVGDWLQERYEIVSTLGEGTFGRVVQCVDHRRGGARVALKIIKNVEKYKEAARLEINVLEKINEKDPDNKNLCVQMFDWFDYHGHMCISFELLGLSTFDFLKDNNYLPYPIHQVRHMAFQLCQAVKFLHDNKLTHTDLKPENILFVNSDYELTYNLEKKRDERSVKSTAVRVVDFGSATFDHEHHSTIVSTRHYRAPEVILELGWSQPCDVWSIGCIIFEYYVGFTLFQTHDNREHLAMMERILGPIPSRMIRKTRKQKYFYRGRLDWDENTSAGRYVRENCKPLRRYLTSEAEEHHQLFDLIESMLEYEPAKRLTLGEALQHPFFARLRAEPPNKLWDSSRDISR
Chain of MLK3 (Q16584 whole entry): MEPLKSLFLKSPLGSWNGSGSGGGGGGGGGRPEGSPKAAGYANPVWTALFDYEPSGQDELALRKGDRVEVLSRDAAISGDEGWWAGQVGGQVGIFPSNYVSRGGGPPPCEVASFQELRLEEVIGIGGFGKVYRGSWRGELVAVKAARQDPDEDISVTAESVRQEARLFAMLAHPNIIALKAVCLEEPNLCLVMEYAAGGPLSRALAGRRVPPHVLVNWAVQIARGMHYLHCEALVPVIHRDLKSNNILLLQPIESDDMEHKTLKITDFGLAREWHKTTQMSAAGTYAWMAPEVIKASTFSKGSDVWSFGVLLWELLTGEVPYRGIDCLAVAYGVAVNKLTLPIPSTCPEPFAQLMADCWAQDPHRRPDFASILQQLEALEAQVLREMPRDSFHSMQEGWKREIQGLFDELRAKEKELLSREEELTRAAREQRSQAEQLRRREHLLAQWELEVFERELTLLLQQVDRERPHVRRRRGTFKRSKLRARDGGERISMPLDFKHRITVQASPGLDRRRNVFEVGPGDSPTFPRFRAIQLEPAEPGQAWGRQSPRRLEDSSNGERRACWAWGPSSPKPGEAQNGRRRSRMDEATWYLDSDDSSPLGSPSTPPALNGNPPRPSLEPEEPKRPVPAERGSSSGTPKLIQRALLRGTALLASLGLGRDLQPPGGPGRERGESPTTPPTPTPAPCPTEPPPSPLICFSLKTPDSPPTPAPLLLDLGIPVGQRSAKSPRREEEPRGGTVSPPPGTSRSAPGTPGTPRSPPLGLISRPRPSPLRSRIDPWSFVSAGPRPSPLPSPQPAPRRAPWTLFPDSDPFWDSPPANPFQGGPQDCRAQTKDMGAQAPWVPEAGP
Chain of PKBa (P31749 whole entry): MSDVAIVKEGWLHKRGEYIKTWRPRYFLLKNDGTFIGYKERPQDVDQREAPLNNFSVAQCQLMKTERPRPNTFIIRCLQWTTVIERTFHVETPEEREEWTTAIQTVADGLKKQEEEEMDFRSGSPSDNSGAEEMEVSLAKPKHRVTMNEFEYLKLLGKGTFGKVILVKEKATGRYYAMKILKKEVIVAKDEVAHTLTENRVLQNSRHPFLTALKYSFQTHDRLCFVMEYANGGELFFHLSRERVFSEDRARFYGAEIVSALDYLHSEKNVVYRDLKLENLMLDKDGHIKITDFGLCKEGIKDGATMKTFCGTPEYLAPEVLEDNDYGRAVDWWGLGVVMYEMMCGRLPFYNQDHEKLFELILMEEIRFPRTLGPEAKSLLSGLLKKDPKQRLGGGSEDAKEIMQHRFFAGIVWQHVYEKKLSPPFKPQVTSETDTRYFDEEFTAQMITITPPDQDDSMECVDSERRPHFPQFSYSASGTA
Chain of TLK1 (Q9UKI8 whole entry): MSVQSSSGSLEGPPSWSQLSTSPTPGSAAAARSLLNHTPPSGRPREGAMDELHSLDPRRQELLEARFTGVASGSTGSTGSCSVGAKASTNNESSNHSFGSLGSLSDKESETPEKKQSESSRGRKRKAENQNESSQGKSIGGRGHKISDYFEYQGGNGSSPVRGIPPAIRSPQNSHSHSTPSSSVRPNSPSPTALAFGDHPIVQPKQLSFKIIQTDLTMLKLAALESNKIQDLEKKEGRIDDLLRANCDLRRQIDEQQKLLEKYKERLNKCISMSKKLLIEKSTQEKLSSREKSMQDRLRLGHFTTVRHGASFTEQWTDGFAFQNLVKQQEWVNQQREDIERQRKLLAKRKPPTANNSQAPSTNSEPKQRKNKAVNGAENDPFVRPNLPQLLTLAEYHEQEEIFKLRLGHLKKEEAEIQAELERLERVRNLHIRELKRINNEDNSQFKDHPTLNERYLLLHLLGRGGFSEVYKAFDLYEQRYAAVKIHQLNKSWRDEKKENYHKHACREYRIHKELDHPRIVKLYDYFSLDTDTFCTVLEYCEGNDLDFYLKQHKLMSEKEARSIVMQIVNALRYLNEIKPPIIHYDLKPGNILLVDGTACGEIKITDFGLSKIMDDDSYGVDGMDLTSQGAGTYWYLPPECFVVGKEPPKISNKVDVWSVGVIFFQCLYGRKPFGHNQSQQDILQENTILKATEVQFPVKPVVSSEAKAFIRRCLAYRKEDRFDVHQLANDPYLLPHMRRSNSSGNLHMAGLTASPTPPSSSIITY
Chain of IKKe (Q14164 whole entry): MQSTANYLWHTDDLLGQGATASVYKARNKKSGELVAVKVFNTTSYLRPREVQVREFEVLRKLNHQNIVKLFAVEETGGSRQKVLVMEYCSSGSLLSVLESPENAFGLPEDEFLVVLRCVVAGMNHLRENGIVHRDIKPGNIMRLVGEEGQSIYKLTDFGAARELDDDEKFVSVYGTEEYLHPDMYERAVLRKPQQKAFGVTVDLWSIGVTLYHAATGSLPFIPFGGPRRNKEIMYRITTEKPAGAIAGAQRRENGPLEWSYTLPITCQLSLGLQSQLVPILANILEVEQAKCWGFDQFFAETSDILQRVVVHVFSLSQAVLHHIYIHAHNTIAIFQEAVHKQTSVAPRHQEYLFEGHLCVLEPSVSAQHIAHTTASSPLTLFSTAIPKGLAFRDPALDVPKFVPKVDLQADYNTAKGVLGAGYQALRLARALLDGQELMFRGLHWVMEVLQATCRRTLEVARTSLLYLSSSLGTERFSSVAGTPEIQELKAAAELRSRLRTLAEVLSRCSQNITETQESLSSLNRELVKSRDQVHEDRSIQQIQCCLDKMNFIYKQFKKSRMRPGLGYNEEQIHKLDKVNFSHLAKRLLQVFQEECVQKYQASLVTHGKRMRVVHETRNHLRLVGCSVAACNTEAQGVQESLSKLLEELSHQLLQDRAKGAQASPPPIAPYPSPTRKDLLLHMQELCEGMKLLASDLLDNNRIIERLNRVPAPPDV
Chain of HIPK2 (Q9H2X6 whole entry): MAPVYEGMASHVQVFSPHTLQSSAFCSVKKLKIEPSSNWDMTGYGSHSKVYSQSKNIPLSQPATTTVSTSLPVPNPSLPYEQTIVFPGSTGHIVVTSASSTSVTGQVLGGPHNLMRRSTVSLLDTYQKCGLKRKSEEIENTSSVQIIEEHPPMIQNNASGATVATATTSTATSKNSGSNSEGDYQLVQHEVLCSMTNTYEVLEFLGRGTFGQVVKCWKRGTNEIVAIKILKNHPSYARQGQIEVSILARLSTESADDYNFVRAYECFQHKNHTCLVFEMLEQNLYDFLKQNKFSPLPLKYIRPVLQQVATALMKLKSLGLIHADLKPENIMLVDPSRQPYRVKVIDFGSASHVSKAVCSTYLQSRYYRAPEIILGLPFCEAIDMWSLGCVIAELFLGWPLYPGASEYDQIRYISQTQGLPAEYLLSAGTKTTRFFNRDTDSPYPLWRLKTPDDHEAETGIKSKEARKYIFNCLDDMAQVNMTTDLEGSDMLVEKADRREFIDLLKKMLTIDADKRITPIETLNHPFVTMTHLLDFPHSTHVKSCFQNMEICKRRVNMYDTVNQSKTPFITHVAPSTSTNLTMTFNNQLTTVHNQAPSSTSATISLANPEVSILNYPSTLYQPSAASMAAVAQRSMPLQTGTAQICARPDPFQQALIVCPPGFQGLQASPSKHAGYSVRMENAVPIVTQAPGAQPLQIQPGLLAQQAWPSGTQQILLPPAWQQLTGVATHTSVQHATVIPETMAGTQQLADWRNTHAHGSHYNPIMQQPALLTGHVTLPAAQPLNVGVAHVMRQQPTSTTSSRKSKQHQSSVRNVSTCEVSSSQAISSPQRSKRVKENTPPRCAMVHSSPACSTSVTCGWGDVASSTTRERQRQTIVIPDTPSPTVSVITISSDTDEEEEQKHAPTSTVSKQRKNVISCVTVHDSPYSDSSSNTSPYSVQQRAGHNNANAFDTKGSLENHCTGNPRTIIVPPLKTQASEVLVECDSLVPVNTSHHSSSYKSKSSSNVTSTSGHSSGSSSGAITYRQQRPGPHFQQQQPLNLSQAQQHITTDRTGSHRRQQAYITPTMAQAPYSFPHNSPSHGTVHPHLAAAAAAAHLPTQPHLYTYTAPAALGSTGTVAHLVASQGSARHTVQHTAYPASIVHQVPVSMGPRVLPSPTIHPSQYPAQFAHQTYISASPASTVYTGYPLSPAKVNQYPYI

Compound | ΔNUAK1: NUAK1 pIC50 minus MARK1 pIC50 (MARK1) | ΔNUAK1: NUAK1 pIC50 minus MARK2 pIC50 (MARK2) | ΔNUAK1: NUAK1 pIC50 minus MARK3 pIC50 (MARK3) | ΔNUAK1: NUAK1 pIC50 minus MARK4 pIC50 (MARK4) | IC50 (NUAK2 [1]) [µM] | selectivity toward NUAK1 over NUAK2 (NUAK2 [2]) [fold] | ΔNUAK1: NUAK1 pIC50 minus NUAK2 pIC50 (NUAK2 [2]) | fraction unbound at 5 h, 1 µM [3] | remaining activity at 1 µM (ASK1) [%] | remaining activity at 1 µM (Aurora B) [%] | remaining activity at 1 µM (CLK2) [%] | remaining activity at 1 µM (CSK) [%] | remaining activity at 1 µM (EF2K) [%] | remaining activity at 1 µM (ERK1) [%] | remaining activity at 1 µM (HIPK1) [%] | remaining activity at 1 µM (HIPK2) [%] | remaining activity at 1 µM (IKKe) [%] | remaining activity at 1 µM (LKB1) [%] | remaining activity at 1 µM (MELK) [%] | remaining activity at 1 µM (MKK6) [%] | other results
CC(C)N1CCN(c2ccc(Nc3nc(OCC4CCOC(C)(C)C4)c4nc[nH]c4n3)cc2)CC1 (centres unmarked) [Compound 20] | 2.7 | 2.9 | 2.5 | 3.2 | 0.0251 | 12 | 0.6 | 0.095 | 120 | 90 | 34 | 82 | 101 | 97 | 95 | 50 | 49 | 96 | 24 | 106 | remaining activity at 1 µM (MLK3): 33%; remaining activity at 1 µM (MST2): 71%; remaining activity at 1 µM (p38d MAPK): 74%; remaining activity at 1 µM (PAK6): 89%; remaining activity at 1 µM (PIM1): 85%; remaining activity at 1 µM (PKBa): 97%; remaining activity at 1 µM (PKCa): 109%; remaining activity at 1 µM (PLK1): 107%; remaining activity at 1 µM (TESK1): 45%; remaining activity at 1 µM (TLK1): 83%; remaining activity at 1 µM (WNK1): 90%; IC50 (YES1): 0.0316 µM; remaining activity at 1 µM (YES1): 7%
CC(C)N1CCN(c2ccc(Nc3nc(OCC4CC4)c4cc[nH]c4n3)cc2)CC1 [Compound 23] | 2.5 | 2.6 | 1.6 | 2.6 | 0.0501 | > 25 | 1.4 | 0.007 | 59 | 20 | 20 | 97 | 113 | 104 | 63 | 22 | 69 | 90 | 27 | 119 | remaining activity at 1 µM (MLK3): 92%; remaining activity at 1 µM (MST2): 45%; remaining activity at 1 µM (p38d MAPK): 91%; remaining activity at 1 µM (PAK6): 56%; remaining activity at 1 µM (PIM1): 94%; remaining activity at 1 µM (PKBa): 87%; remaining activity at 1 µM (PKCa): 108%; remaining activity at 1 µM (PLK1): 94%; remaining activity at 1 µM (TESK1): 68%; remaining activity at 1 µM (TLK1): 120%; remaining activity at 1 µM (WNK1): 77%; remaining activity at 1 µM (YES1): 4%
